Our source for the IC50 values is patent US20230310428A1, “EGFR INHIBITOR AND PREPARATION METHOD AND USE THEREOF” (HONGYUN BIOTECH CO., LTD., priority 2020, published 2023).

pIC50: −log10 of the molar value.

Holding throughout (experiment): Growth inhibitory activity of compounds on BaF3 cell lines stably transfected with kinase (MTS, 48 h)
Holding throughout (assay type): cell-based

Experiment [1] has as its target T1, various mutants of kinase EGFR (BaF3 cell lines stably transfected with kinase) (Homo sapiens, UniProt P00533).
T1 construct: other: BaF3 cells stably transfected with EGFR Δ19Del; MTS, 48 h; other: BaF3 cell line stably transfected with EGFR Δ19Del
Conditions: BaF3 cell line stably transfected with EGFR Δ19Del, read-out: Δ19Del growth inhibitory activity IC50. A digest of the protocol: (§1)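 Transfected cells received compound (max 10 µM, 8 concentrations) for 48 h; MTS readout at 490 nm yielded IC50.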

Experiment [2] deals with T2, various mutants of kinase EGFR (BaF3 cell lines stably transfected with kinase) (Homo sapiens, UniProt P00533, C797S/L858R/T790M).
T2 construct: expressed in transfected cells; host or cells: BaF3
Conditions: BaF3 cell line stably transfected with EGFR L858R/T790M/C797S, read-out: L858R/T790M/ C797S growth inhibitory activity IC50. The method, boiled down:
as §1

Experiment [3] concerns the target T3, various mutants of kinase EGFR (BaF3 cell lines stably transfected with kinase) (Homo sapiens, UniProt P00533, L858R).
T3 construct: expressed in transfected cells; host or cells: BaF3
The note with it: BaF3 cell line stably transfected with EGFR L858R, read-out: L858R growth inhibitory activity IC50. A digest of the protocol:
as §1

Experiment [4] deals with T4, various mutants of kinase EGFR (BaF3 cell lines stably transfected with kinase) (Homo sapiens, UniProt P00533, L858R/T790M).
T4 construct: expressed in transfected cells; host or cells: BaF3
T4 sequence (P00533 25-1210 T790M/L858R): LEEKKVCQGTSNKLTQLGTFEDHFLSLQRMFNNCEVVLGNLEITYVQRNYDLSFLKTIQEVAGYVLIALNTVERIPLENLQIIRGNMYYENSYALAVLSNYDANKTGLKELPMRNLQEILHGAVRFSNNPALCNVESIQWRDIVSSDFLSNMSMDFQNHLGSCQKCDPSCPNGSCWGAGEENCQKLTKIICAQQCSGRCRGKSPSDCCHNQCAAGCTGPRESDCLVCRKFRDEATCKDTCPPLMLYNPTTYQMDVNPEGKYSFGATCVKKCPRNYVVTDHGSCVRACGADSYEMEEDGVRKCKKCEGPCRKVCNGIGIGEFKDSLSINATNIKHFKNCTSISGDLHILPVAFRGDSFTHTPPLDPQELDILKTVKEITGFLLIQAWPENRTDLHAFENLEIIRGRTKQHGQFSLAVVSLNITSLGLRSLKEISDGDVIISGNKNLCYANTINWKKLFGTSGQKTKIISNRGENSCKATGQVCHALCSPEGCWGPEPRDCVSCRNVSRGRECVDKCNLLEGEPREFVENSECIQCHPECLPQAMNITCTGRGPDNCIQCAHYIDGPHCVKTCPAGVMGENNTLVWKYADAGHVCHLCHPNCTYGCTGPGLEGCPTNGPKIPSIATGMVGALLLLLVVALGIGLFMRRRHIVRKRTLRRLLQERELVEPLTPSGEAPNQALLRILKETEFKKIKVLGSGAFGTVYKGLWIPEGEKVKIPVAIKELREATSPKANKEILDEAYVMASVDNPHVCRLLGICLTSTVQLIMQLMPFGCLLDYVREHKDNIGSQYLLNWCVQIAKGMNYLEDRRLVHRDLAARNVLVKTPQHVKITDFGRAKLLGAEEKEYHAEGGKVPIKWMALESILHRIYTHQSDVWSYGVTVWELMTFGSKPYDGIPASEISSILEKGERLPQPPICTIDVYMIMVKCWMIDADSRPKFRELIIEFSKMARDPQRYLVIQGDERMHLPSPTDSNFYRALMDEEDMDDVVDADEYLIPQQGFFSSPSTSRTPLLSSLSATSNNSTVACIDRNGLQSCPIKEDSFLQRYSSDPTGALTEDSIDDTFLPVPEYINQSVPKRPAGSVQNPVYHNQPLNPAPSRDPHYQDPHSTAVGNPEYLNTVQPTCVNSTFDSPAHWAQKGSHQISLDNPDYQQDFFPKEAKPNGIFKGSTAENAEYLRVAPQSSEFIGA
The note with it: BaF3 cell line stably transfected with EGFR L858R/T790M, read-out: L858R/ T790M growth inhibitory activity IC50. A digest of the protocol:
as §1

Experiment [5] deals with T5, various mutants of kinase EGFR (BaF3 cell lines stably transfected with kinase) (Homo sapiens, UniProt P00533, T790M/C797S, form not given).
T5 construct: other: BaF3 cells stably transfected with EGFR Δ19Del/T790M/C797S; MTS, 48; other: BaF3 cell line stably transfected with EGFR Δ19Del/T790M/C7
Conditions: BaF3 cell line stably transfected with EGFR Δ19Del/T790M/C797S, read-out: Δ19Del/T790M/ C797S growth inhibitory activity IC50. A digest of the protocol: as §1

In experiment [6] the target is T6, various mutants of kinase EGFR (BaF3 cell lines stably transfected with kinase) (Homo sapiens, UniProt P00533, T790M, form not given).
T6 construct: other: BaF3 cells stably transfected with EGFR Δ19Del/T790M; MTS, 48 h; other: BaF3 cell line stably transfected with EGFR Δ19Del/T790M; MTS, 48
T6 sequence (P00533 with tags, fused parts or gaps DEL746-750/T790M, form open): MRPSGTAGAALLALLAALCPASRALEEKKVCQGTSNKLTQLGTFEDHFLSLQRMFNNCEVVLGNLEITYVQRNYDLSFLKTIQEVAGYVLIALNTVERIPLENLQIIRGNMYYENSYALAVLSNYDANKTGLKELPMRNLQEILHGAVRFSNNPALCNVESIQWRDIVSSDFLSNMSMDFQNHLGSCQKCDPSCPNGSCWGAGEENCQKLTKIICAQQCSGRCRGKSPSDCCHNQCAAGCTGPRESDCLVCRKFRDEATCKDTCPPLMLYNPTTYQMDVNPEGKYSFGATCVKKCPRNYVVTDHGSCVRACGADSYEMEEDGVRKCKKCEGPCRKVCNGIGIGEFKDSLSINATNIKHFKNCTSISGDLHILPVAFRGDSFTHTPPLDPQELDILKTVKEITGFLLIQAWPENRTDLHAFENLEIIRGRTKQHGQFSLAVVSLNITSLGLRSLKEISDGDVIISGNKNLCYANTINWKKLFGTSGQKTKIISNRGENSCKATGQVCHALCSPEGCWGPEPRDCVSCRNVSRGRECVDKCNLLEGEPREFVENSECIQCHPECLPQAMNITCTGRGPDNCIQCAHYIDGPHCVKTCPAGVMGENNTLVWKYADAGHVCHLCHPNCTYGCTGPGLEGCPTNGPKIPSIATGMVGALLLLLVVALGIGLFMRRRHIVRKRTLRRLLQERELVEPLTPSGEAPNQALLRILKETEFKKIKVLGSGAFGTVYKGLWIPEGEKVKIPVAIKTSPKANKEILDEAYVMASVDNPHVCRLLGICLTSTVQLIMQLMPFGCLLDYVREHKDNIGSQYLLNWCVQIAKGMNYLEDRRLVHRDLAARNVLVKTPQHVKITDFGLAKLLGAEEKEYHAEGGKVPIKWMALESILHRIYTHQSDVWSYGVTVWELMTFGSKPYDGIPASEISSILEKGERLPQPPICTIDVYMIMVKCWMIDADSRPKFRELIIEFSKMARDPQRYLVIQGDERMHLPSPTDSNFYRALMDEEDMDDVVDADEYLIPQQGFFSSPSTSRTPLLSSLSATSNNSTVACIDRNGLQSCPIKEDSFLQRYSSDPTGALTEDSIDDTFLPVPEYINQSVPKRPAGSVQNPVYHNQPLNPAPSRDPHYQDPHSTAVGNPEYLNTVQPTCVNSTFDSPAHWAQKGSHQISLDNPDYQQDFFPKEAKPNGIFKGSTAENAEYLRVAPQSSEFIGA
Conditions: BaF3 cell line stably transfected with EGFR Δ19Del/T790M, read-out: Δ19Del/ T790M growth inhibitory activity IC50. A digest of the protocol:
as §1

T1 sequence (P00533 with tags, fused parts or gaps DEL746-750): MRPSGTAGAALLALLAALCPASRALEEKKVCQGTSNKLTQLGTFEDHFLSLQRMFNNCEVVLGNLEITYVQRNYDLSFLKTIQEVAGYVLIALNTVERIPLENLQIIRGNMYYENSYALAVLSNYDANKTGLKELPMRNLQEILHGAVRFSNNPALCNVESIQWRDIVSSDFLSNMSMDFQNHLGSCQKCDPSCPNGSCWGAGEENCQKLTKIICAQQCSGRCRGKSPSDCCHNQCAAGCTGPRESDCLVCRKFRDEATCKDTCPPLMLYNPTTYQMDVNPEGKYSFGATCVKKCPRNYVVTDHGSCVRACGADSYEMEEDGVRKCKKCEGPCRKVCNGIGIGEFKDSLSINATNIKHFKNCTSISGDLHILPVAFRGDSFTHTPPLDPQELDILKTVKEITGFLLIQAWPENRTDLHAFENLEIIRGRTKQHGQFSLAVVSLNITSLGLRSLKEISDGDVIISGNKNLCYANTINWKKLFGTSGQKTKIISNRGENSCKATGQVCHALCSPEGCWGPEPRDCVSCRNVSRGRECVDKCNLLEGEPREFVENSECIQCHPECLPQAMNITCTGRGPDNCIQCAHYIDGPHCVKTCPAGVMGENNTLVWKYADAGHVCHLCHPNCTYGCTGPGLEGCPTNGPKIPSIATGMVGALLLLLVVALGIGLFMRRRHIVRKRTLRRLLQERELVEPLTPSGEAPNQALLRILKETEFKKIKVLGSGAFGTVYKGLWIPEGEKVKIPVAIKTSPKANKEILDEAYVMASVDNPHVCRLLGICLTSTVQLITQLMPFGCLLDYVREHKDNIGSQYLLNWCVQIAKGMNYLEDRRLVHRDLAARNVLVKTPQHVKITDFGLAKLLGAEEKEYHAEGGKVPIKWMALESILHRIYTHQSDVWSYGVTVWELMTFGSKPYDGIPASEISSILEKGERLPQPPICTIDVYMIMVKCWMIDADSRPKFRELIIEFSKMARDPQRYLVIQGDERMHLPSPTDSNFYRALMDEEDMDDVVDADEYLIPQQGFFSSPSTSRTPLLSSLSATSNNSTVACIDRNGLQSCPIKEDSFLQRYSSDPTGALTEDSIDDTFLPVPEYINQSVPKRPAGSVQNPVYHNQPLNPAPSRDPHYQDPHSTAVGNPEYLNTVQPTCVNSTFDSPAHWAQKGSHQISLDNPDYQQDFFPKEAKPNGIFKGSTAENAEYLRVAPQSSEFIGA
T3 sequence (P00533 25-1210 L858R): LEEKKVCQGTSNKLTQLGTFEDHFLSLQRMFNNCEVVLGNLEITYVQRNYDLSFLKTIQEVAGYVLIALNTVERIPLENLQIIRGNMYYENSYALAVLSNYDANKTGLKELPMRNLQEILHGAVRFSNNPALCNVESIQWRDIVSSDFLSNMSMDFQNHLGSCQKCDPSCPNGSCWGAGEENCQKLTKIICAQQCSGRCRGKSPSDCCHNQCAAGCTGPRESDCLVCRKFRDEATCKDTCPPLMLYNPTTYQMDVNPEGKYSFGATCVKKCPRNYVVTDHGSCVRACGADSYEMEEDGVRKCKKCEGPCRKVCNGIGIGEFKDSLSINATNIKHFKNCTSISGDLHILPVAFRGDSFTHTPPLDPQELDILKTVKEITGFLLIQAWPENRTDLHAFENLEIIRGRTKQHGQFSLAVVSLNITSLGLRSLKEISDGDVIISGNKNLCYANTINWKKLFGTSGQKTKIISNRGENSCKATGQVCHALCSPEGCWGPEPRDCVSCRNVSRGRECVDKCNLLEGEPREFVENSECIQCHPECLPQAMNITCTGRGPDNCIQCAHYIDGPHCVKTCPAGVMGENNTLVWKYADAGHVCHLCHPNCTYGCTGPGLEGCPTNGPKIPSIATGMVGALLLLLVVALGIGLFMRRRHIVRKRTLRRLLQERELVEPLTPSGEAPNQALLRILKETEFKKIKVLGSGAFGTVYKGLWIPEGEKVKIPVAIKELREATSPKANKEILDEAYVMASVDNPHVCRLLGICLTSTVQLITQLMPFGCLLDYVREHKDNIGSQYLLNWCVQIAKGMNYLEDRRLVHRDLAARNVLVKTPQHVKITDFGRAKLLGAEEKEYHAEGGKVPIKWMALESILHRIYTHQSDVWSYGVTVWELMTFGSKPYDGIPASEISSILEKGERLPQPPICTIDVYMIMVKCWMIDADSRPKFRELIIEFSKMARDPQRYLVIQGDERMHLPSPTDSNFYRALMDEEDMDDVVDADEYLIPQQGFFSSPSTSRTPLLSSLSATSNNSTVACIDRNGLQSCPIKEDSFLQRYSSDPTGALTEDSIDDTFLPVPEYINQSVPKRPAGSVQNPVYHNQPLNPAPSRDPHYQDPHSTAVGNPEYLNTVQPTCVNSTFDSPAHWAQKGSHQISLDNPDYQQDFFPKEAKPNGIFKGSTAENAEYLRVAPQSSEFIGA

On to `CCOc1cnc(Nc2cc(CC)c(N3CCC(N4CCN(C)CC4)CC3)cc2OC)nc1Nc1ccc2nccnc2c1N(C)S(C)(=O)=O` [Compound I-337], for which the pIC50 in experiment [1] is ≥ 7.30; in experiment [2], 6.30 to 7.30; in experiment [3], 6.30 to 7.30; in experiment [4], 6.30 to 7.30; in experiment [5] it was 6.30 to 7.30; in experiment [6] it was ≥ 7.30.

On to `CCOc1cnc(Nc2cc(CC)c(N3CCC(N4CCN(C)CC4)CC3)nc2OC)nc1Nc1ccc2nccnc2c1N(C)S(C)(=O)=O` [Compound I-338], for which the pIC50 in experiment [1] was 6.30 to 7.30; in experiment [2], 6.30 to 7.30; in experiment [3], 6.30 to 7.30; in experiment [4], 6.30 to 7.30; in experiment [5], 5.60 to 6.30; in experiment [6], 6.30 to 7.30.

Take `COc1cc(N2CCC(N3CCN(C)CC3)CC2)c(C)cc1Nc1nccc(Nc2ccc3nccnc3c2N(C)S(C)(=O)=O)n1` [Compound I-340]: the pIC50 in experiment [1] was ≥ 7.30; in experiment [2], 6.30 to 7.30; in experiment [3], ≥ 7.30; in experiment [4] it was ≥ 7.30; in experiment [5], 6.30 to 7.30; in experiment [6], ≥ 7.30.

Turning to `CCc1cc(Nc2nccc(Nc3ccc4nccnc4c3N(C)S(C)(=O)=O)n2)c(OC)cc1N1CCC(N2CCN(C)CC2)CC1` [Compound I-341], the pIC50 in experiment [1] is ≥ 7.30; in experiment [2] it was ≥ 7.30; in experiment [3], ≥ 7.30; in experiment [4], ≥ 7.30; in experiment [5], 6.30 to 7.30; in experiment [6], ≥ 7.30.

On to `COc1cc(N2CCC(N3CCN(C)CC3)CC2)c(C(C)C)cc1Nc1nccc(Nc2ccc3nccnc3c2N(C)S(C)(=O)=O)n1` [Compound I-342], for which the pIC50 in experiment [1] was 6.30 to 7.30; in experiment [2], 5.60 to 6.30; in experiment [3], 6.30 to 7.30; in experiment [4] it was 6.30 to 7.30; in experiment [5], 5.60 to 6.30; in experiment [6], 6.30 to 7.30.

`COc1cc(N2CCC(N3CCN(C)CC3)CC2)c(C2CC2)cc1Nc1nccc(Nc2ccc3nccnc3c2N(C)S(C)(=O)=O)n1` [Compound I-343]: the pIC50 in experiment [1], in experiment [2], in experiment [3], in experiment [4], in experiment [5] and in experiment [6] was 6.30 to 7.30 each time.

Consider `CCc1cc(Nc2nccc(Nc3ccc4nccnc4c3N(C)S(C)(=O)=O)n2)ccc1N1CCC(N2CCN(C)CC2)CC1` [Compound I-344], for which the pIC50 in experiment [1] is ≥ 7.30; in experiment [2] it was ≥ 7.30; in experiment [3] it was ≥ 7.30; in experiment [4] it was ≥ 7.30; in experiment [5], 6.30 to 7.30; in experiment [6], 6.30 to 7.30.

As for `COc1cc(N2CCC(N3CCN(C)CC3)CC2)c(C(C)C)cc1Nc1ncc(C#N)c(Nc2ccc3nccnc3c2N(C)S(C)(=O)=O)n1` [Compound I-345], the pIC50 in experiment [1], in experiment [2], in experiment [3], in experiment [4], in experiment [5] and in experiment [6] was 6.30 to 7.30 in each case.

Turning to `CCc1cc(Nc2ncc(C#N)c(Nc3ccc4nccnc4c3N(C)S(C)(=O)=O)n2)ccc1N1CCC(N2CCN(C)CC2)CC1` [Compound I-346], the pIC50 was ≥ 7.30 in experiment [1]; ≥ 7.30 in experiment [2]; ≥ 7.30 in experiment [3]; ≥ 7.30 in experiment [4]; 6.30 to 7.30 in experiment [5]; ≥ 7.30 in experiment [6].

`CCc1cc(Nc2ncc(C3CC3)c(Nc3ccc4nccnc4c3N(C)S(C)(=O)=O)n2)c(OC)cc1C(=O)N1CCC(N2CCN(C)CC2)CC1` [Compound I-347]: the pIC50 is 5.60 to 6.30 in experiment [1]; 6.30 to 7.30 in experiment [2]; 6.30 to 7.30 in experiment [3]; 6.30 to 7.30 in experiment [4]; 6.30 to 7.30 in experiment [5]; 5.60 to 6.30 in experiment [6].

On to `CCc1cnc(Nc2ccc(N3CCC(N4CCN(C)CC4)CC3)c(F)c2F)nc1Nc1ccc2nccnc2c1N(C)S(C)(=O)=O` [Compound I-348], for which the pIC50 is 6.30 to 7.30 in experiment [1]; 6.30 to 7.30 in experiment [2]; 6.30 to 7.30 in experiment [3]; 6.30 to 7.30 in experiment [4]; 6.30 to 7.30 in experiment [5]; ≥ 7.30 in experiment [6].

Take `CCc1cnc(Nc2cc(F)c(N3CCC(N4CCN(C)CC4)CC3)c(F)c2)nc1Nc1ccc2nccnc2c1N(C)S(C)(=O)=O` [Compound I-349]: the pIC50 in experiment [1] was 6.30 to 7.30; in experiment [2], ≥ 7.30; in experiment [3], ≥ 7.30; in experiment [4] it was ≥ 7.30; in experiment [5], ≥ 7.30; in experiment [6], ≥ 7.30.

On to `CCc1cc(Nc2ncc(CC)c(Nc3ccc4nccnc4c3N(C)S(C)(=O)=O)n2)c(OC)cc1C(=O)N1CCC(N2CCN(C)CC2)CC1` [Compound I-350], for which the pIC50 in experiment [1], in experiment [2], in experiment [3], in experiment [4], in experiment [5] and in experiment [6] was 6.30 to 7.30 in each case.

Turning to `COc1ccc(N2CCC(C#N)CC2)cc1Nc1ncc(Br)c(Nc2ccc3nccnc3c2N(C)S(C)(=O)=O)n1` [Compound I-351], the pIC50 in experiment [1] was 6.30 to 7.30; in experiment [2], 6.30 to 7.30; in experiment [3], 6.30 to 7.30; in experiment [4] it was ≥ 7.30; in experiment [5], 6.30 to 7.30; in experiment [6] it was 6.30 to 7.30.

Turning to `COc1ccc(N2CCNCC2)cc1Nc1ncc(Br)c(Nc2ccc3nccnc3c2N(C)S(C)(=O)=O)n1` [Compound I-352], the pIC50 in experiment [1] is 6.30 to 7.30; in experiment [2], 6.30 to 7.30; in experiment [3], 6.30 to 7.30; in experiment [4], ≥ 7.30; in experiment [5], 6.30 to 7.30; in experiment [6], 6.30 to 7.30.

Consider `CN1CCN(C2CCN(c3ccc(Nc4ncc(Br)c(Nc5ccc6nccnc6c5N(C)S(C)(=O)=O)n4)c(F)c3F)CC2)CC1` [Compound I-353], for which the pIC50 in experiment [1] is 6.30 to 7.30; in experiment [2] it was ≥ 7.30; in experiment [3], ≥ 7.30; in experiment [4], ≥ 7.30; in experiment [5] it was ≥ 7.30; in experiment [6], ≥ 7.30.

For the compound `CN1CCN(C2CCN(c3c(F)cc(Nc4ncc(Br)c(Nc5ccc6nccnc6c5N(C)S(C)(=O)=O)n4)cc3F)CC2)CC1` [Compound I-354], the pIC50 is 6.30 to 7.30 in experiment [1]; ≥ 7.30 in experiment [2]; ≥ 7.30 in experiment [3]; ≥ 7.30 in experiment [4]; ≥ 7.30 in experiment [5]; ≥ 7.30 in experiment [6].

As to `CCc1cc(Nc2ncc(Br)c(Nc3ccc4nccnc4c3N(C)S(C)(=O)=O)n2)c(OC)cc1C(=O)N1CCC(N2CCN(C)CC2)CC1` [Compound I-355], the pIC50 in experiment [1] is 6.30 to 7.30; in experiment [2] it was 6.30 to 7.30; in experiment [3], 6.30 to 7.30; in experiment [4], 6.30 to 7.30; in experiment [5], ≥ 7.30; in experiment [6] it was 6.30 to 7.30.

For the compound `CN1CCN(C2CCN(c3ccc(Nc4ncc(Cl)c(Nc5ccc6nccnc6c5N(C)S(C)(=O)=O)n4)c(F)c3F)CC2)CC1` [Compound I-356], the pIC50 in experiment [1] is 6.30 to 7.30; in experiment [2], 6.30 to 7.30; in experiment [3] it was ≥ 7.30; in experiment [4], ≥ 7.30; in experiment [5], ≥ 7.30; in experiment [6], 6.30 to 7.30.

Take `CN1CCN(C2CCN(c3c(F)cc(Nc4ncc(Cl)c(Nc5ccc6nccnc6c5N(C)S(C)(=O)=O)n4)cc3F)CC2)CC1` [Compound I-357]: the pIC50 in experiment [1] was 6.30 to 7.30; in experiment [2] it was ≥ 7.30; in experiment [3], ≥ 7.30; in experiment [4], ≥ 7.30; in experiment [5] it was ≥ 7.30; in experiment [6] it was ≥ 7.30.

As for `CCc1cc(Nc2ncc(Cl)c(Nc3ccc4nccnc4c3N(C)S(C)(=O)=O)n2)c(OC)cc1C(=O)N1CCC(N2CCN(C)CC2)CC1` [Compound I-358], the pIC50 in experiment [1] was 5.60 to 6.30; in experiment [2], 6.30 to 7.30; in experiment [3], 6.30 to 7.30; in experiment [4], 6.30 to 7.30; in experiment [5] it was 6.30 to 7.30; in experiment [6] it was 6.30 to 7.30.

Consider `CN1CCN(C2CCN(c3ccc(Nc4ncc(Br)c(Nc5ccc6nccnc6c5NS(C)(=O)=O)n4)c(F)c3F)CC2)CC1` [Compound I-359], for which the pIC50 in experiment [1], in experiment [2], in experiment [3], in experiment [4], in experiment [5] and in experiment [6] was ≥ 7.30 in each case.
